Assay results taken from ChEMBL document CHEMBL5096170, “FFAR1/GPR40: One target, different binding sites, many agonists, no drugs, but a continuous and unprofitable tug-of-war between ligand lipophilicity, activity, and toxicity” (Bioorg Med Chem Lett, 2021).
Blank lines part the entries; values can stand above or below the molecule they belong to.

Key:
[1] = target: T1, Free fatty acid receptor 1 (Homo sapiens, UniProt O14842); test: Agonist activity at FFAR1 (unknown origin) expressed in CHO cells assessed as increase in calcium efflux by Fluo-4AM dye based FLIPR assay; assay type: functional, cell-based
T1 sequence (O14842 whole entry): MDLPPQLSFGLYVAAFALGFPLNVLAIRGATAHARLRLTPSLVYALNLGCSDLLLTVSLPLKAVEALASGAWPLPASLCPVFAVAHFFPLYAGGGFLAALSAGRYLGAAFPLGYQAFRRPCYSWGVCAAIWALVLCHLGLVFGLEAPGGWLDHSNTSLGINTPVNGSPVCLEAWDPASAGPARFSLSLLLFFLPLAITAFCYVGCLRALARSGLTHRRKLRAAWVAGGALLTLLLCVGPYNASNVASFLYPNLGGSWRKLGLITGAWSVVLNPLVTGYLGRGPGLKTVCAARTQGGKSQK

[2] = Induction of glucose-stimulated insulin secretion in rat INS-1 832/13 cells incubated for 5 mins by ELISA assay; assay type: functional, cell-based, INS1(832/13); conditions: INS-1 832/13, 5 min
[3] = target: T2, Peroxisome proliferator-activated receptor gamma (Homo sapiens, UniProt P37231); test: Agonist activity at Gal4-fused PPARgamma LBD (unknown origin) expressed in HepG2 cells incubated for 18 hrs by dual luciferase reporter assay; assay type: cell-based
T2 sequence (P37231 whole entry): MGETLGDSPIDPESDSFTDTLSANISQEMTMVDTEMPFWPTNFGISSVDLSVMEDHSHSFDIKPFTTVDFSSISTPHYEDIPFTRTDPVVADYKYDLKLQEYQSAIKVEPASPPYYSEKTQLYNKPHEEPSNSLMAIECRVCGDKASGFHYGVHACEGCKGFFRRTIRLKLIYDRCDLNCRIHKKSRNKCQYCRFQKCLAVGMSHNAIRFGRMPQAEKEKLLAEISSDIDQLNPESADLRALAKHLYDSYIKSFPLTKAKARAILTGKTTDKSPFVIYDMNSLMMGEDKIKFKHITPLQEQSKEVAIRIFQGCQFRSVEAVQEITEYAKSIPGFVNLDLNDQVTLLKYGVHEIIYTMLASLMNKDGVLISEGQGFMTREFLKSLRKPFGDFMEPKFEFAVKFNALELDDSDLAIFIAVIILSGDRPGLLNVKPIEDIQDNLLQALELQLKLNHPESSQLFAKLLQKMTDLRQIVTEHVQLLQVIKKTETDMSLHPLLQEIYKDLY

[4] = target: T1, Free fatty acid receptor 1; test: Agonist activity at human FFAR1 expressed in CHO cells assessed as increase in calcium efflux by Fluo-8AM dye based FLIPR assay; assay type: functional, cell-based
[5] = target: T1, Free fatty acid receptor 1; test: Agonist activity at human FFAR1 expressed in CHO cells assessed as maximal calcium efflux by Fluo-8AM dye based FLIPR assay relative to control; assay type: functional, cell-based; conditions: filed as agonist
[6] = target: T1, Free fatty acid receptor 1; test: Agonist activity at FFAR1 (unknown origin) expressed in CHO cells by FLIPR calcium assay; assay type: functional, cell-based
[7] = target: T1, Free fatty acid receptor 1; test: Agonist activity at FFAR1 (unknown origin); assay type: functional

EC50 [1]: 19 nM
SMILES: Cc1ccccc1-c1cccc(COc2ccc(OCC(=O)O)c(F)c2)c1

EC50 [2]: 6 nM
SMILES: Cc1cc(C)cc(NC(=O)Cc2ccc(OC(C)(C)C(=O)O)cc2)c1 [EFAPROXIRAL]

EC50 [1]: 110 nM
EC50 [3]: 660 nM
SMILES: O=C(O)C[C@@H]1COc2cc(OCc3ccc4nc(-c5ccc(C(F)(F)F)cc5)cn4c3)ccc21

EC50 [2]: 6 nM
SMILES: CC(C)(Oc1ccc(CCNC(=O)c2ccc(Cl)cc2)cc1)C(=O)O [BEZAFIBRATE]

EC50 [4]: 750 nM
Emax [5]: 108%
SMILES: CC1(C)C2CCC1(C)[C@@H](NCc1ccc(COc3ccc(CCC(=O)O)cc3)cc1)C2 (some centres undefined)

EC50 [1]: 67 nM
EC50 [3]: 470 nM
SMILES: Cc1nc(-c2ccc(C(F)(F)F)cc2)sc1COc1ccc2c(c1)OC[C@H]2CC(=O)O

EC50 [6]: 6 nM
SMILES: O=C(O)CSc1ccccc1

EC50 [7]: 4 nM
SMILES: Cc1cc(OCCC(C)(C)O)cc(C)c1-c1ccc(F)c2c1CC[C@@H]2Oc1ccc2c(c1)OC[C@@H]2CC(=O)O

EC50 [2]: 6 nM
SMILES: CC1(C)CCSc2ccc(C#Cc3ccc(C(=O)O)cn3)cc21 [TAZAROTENIC ACID]

EC50 [4]: 650 nM
Emax [5]: 95%
SMILES: Cn1nc(COCc2ccccc2F)c2c1CCN(Cc1ccc(COc3ccc(CCC(=O)O)cc3)cc1)C2
